Assay results as given in US7709636B2, “Pyrazole sulfonylurea compound and herbicide” (Nissan Chemical Industries, Ltd., priority 2004, dated 2010).

Columns and labels:
Echinochloa crus-galli [1] = experiment: Herbicidal effect test in submerged condition by treatment before weed-generation (1); type: in vivo; settings: 0.64 g/a, water surface treated on day of sowing, 3 weeks after treatment
How it was run: (§1)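 Alluvial soil flooded to 4 cm water depth; Echinochloa crus-galli, Scirpus juncoides and Monochoria vaginalis seeds sown, rice transplanted at 2.5-leaf stage. Wettable powder diluted in water applied to water surface on sowing day; greenhouse 25–30° C. Effect scored 0–5 by herbicidal rate after 3 weeks.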

Scirpus juncoides [2] = experiment: as above; type: in vivo; settings: 0.64 g/a, water surface treated on day of sowing, 3 weeks after treatment
How it was run: as §1

Monochoria vaginalis [3] = experiment: as above; type: in vivo; settings: 0.64 g/a, water surface treated on day of sowing, 3 weeks after treatment
How it was run: as §1

Setaria viridis [4] = experiment: Herbicidal effect test by foliage treatment; type: in vivo; settings: 1.6 g/a; foliage treatment after growth of 14 days; 3 weeks after treatment
How it was run: (§2)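 Greenhouse-grown plants (25–30 °C) sprayed on foliage 14 days after sowing with water-diluted wettable powder at set formulation rates. Herbicidal effect scored visually 3 weeks after treatment on a graded scale.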

Echinochloa crus-galli [5] = experiment: Herbicidal effect test by foliage treatment; type: in vivo; settings: 1.6 g/a; foliage treatment after growth of 14 days; 3 weeks after treatment
How it was run: as §2

Black-grass [6] = experiment: Herbicidal effect test by foliage treatment; type: in vivo; settings: 1.6 g/a; foliage treatment after growth of 14 days; 3 weeks after treatment
How it was run: as §2

Ambrosia elatior [7] = experiment: Herbicidal effect test by foliage treatment; type: in vivo; settings: 1.6 g/a; foliage treatment after growth of 14 days; 3 weeks after treatment
How it was run: as §2

Abutilon avicennae [8] = experiment: Herbicidal effect test by foliage treatment; type: in vivo; settings: 1.6 g/a; foliage treatment after growth of 14 days; 3 weeks after treatment
How it was run: as §2

[9] = tested on: Triticum aestivum (wheat); experiment: Herbicidal effect test by foliage treatment; type: in vivo; settings: 1.6 g/a; foliage treatment after growth of 14 days; 3 weeks after treatment
How it was run: as §2

soybean (Glycine max) [10] = experiment: Herbicidal effect test by foliage treatment; type: in vivo; settings: 1.6 g/a; foliage treatment after growth of 14 days; 3 weeks after treatment
How it was run: as §2

corn (Zea mays) [11] = experiment: Herbicidal effect test by foliage treatment; type: in vivo; settings: 1.6 g/a; foliage treatment after growth of 14 days; 3 weeks after treatment
How it was run: as §2

Avena fatua [12] = experiment: Herbicidal effect test by foliage treatment; type: in vivo; settings: 1.6 g/a; foliage treatment after growth of 14 days; 3 weeks after treatment
How it was run: as §2

Stellaria media [13] = experiment: Herbicidal effect test by foliage treatment; type: in vivo; settings: 1.6 g/a; foliage treatment after growth of 14 days; 3 weeks after treatment
How it was run: as §2

Polygonum blumei [14] = experiment: Herbicidal effect test by foliage treatment; type: in vivo; settings: 1.6 g/a; foliage treatment after growth of 14 days; 3 weeks after treatment
How it was run: as §2

Amaranthus retroflexus [15] = experiment: Herbicidal effect test by foliage treatment; type: in vivo; settings: 1.6 g/a; foliage treatment after growth of 14 days; 3 weeks after treatment
How it was run: as §2

Digitaria adscendes [16] = experiment: Herbicidal effect test by foliage treatment; type: in vivo; settings: 1.6 g/a; foliage treatment after growth of 14 days; 3 weeks after treatment
How it was run: as §2

Beta vulgaris (beet) [17] = experiment: Herbicidal effect test by foliage treatment; type: in vivo; settings: 1.6 g/a; foliage treatment after growth of 14 days; 3 weeks after treatment
How it was run: as §2

Chenopodium album [18] = experiment: Herbicidal effect test by foliage treatment; type: in vivo; settings: 1.6 g/a; foliage treatment after growth of 14 days; 3 weeks after treatment
How it was run: as §2

Echinochloa crus-galli [19] = experiment: Herbicidal effect test in submerged condition by treatment during weed-growth stage (1); type: in vivo; settings: 0.64 g/a, treated at 1st to 2nd leaf stage, 3 weeks after treatment
How it was run: (§3)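 Paddy-soil pots flooded to 4 cm water depth were sown and grown in a greenhouse at 25 to 30° C until weeds reached 1st to 2nd leaf stage. A wettable powder diluted in water to a predetermined formulation amount was applied to the water surface. Herbicidal effect was scored 3 weeks after treatment against set criteria.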

Scirpus juncoides [20] = experiment: as above; type: in vivo; settings: 0.64 g/a, treated at 1st to 2nd leaf stage, 3 weeks after treatment
How it was run: as §3

Monochoria vaginalis [21] = experiment: as above; type: in vivo; settings: 0.64 g/a, treated at 1st to 2nd leaf stage, 3 weeks after treatment
How it was run: as §3

Setaria viridis [22] = experiment: Herbicidal effect test by soil treatment; type: in vivo; settings: 1.6 g/a, 3 weeks after treatment
How it was run: (§4)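 Seeds were sown in sterilized diluvial soil under about 1.5 cm cover, then the soil surface was sprayed uniformly with a water-diluted wettable powder at a predetermined formulation amount. Herbicidal effect was scored per species 3 weeks after treatment.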

Echinochloa crus-galli [23] = experiment: Herbicidal effect test by soil treatment; type: in vivo; settings: 1.6 g/a, 3 weeks after treatment
How it was run: as §4

Black-grass [24] = experiment: Herbicidal effect test by soil treatment; type: in vivo; settings: 1.6 g/a, 3 weeks after treatment
How it was run: as §4

Ambrosia elatior [25] = experiment: Herbicidal effect test by soil treatment; type: in vivo; settings: 1.6 g/a, 3 weeks after treatment
How it was run: as §4

Abutilon avicennae [26] = experiment: Herbicidal effect test by soil treatment; type: in vivo; settings: 1.6 g/a, 3 weeks after treatment
How it was run: as §4

[27] = tested on: Triticum aestivum (wheat); experiment: Herbicidal effect test by soil treatment; type: in vivo; settings: 1.6 g/a, 3 weeks after treatment
How it was run: as §4

soybean (Glycine max) [28] = experiment: Herbicidal effect test by soil treatment; type: in vivo; settings: 1.6 g/a, 3 weeks after treatment
How it was run: as §4

corn (Zea mays) [29] = experiment: Herbicidal effect test by soil treatment; type: in vivo; settings: 1.6 g/a, 3 weeks after treatment
How it was run: as §4

Avena fatua [30] = experiment: Herbicidal effect test by soil treatment; type: in vivo; settings: 1.6 g/a, 3 weeks after treatment
How it was run: as §4

Stellaria media [31] = experiment: Herbicidal effect test by soil treatment; type: in vivo; settings: 1.6 g/a, 3 weeks after treatment
How it was run: as §4

Polygonum blumei [32] = experiment: Herbicidal effect test by soil treatment; type: in vivo; settings: 1.6 g/a, 3 weeks after treatment
How it was run: as §4

Amaranthus retroflexus [33] = experiment: Herbicidal effect test by soil treatment; type: in vivo; settings: 1.6 g/a, 3 weeks after treatment
How it was run: as §4

Digitaria adscendes [34] = experiment: Herbicidal effect test by soil treatment; type: in vivo; settings: 1.6 g/a, 3 weeks after treatment
How it was run: as §4

Beta vulgaris (beet) [35] = experiment: Herbicidal effect test by soil treatment; type: in vivo; settings: 1.6 g/a, 3 weeks after treatment
How it was run: as §4

Chenopodium album [36] = experiment: Herbicidal effect test by soil treatment; type: in vivo; settings: 1.6 g/a, 3 weeks after treatment
How it was run: as §4

direct sown rice [37] = experiment: Herbicidal effect test by foliage treatment; type: in vivo, Oryza sativa; settings: 1.6 g/a; foliage treatment after growth of 14 days; 3 weeks after treatment
How it was run: as §2

direct sown rice [38] = experiment: Herbicidal effect test by soil treatment; type: in vivo, Oryza sativa; settings: 1.6 g/a, 3 weeks after treatment
How it was run: as §4

Compound | herbicidal effect, E: Setaria viridis (Setaria viridis [4]) | herbicidal effect, A: Echinochloa crus-galli (Echinochloa crus-galli [5]) | herbicidal effect, G: Black-grass (Black-grass [6]) | herbicidal effect, I: Ambrosia elatior (Ambrosia elatior [7]) | herbicidal effect, H: Abutilon avicennae (Abutilon avicennae [8]) | herbicidal effect, e: Triticum aestivum (wheat) [9] | herbicidal effect, c: soybean (Glycine max) (soybean (Glycine max) [10]) | herbicidal effect, b: corn (Zea mays) (corn (Zea mays) [11]) | herbicidal effect, F: Avena fatua (Avena fatua [12]) | herbicidal effect, M: Stellaria media (Stellaria media [13]) | herbicidal effect, L: Polygonum blumei (Polygonum blumei [14]) | herbicidal effect, J: Amaranthus retroflexus (Amaranthus retroflexus [15]) | herbicidal effect, D: Digitaria adscendes (Digitaria adscendes [16]) | herbicidal effect, f: Beta vulgaris (beet) (Beta vulgaris (beet) [17]) | herbicidal effect, K: Chenopodium album (Chenopodium album [18]) | herbicidal effect, A: Echinochloa crus-galli (Echinochloa crus-galli [19]) | herbicidal effect, B: Scirpus juncoides (Scirpus juncoides [20]) | herbicidal effect, C: Monochoria vaginalis (Monochoria vaginalis [21]) | herbicidal effect, E: Setaria viridis (Setaria viridis [22]) | herbicidal effect, A: Echinochloa crus-galli (Echinochloa crus-galli [23]) | other results
COc1cc(OC)nc(NC(=O)NS(=O)(=O)c2c(C3=NOCC(CI)O3)c(C)nn2C)n1 (stereo not shown) [Compound 6] | 5 (Herbicidal rate 90% or more (almost complete death)) | 5 (Herbicidal rate 90% or more (almost complete death)) | 5 (Herbicidal rate 90% or more (almost complete death)) | 5 (Herbicidal rate 90% or more (almost complete death)) | 5 (Herbicidal rate 90% or more (almost complete death)) | 4 (Herbicidal rate 70% or more and less than 90%) | 4 (Herbicidal rate 70% or more and less than 90%) | 4 (Herbicidal rate 70% or more and less than 90%) | 3 (Herbicidal rate 40% or more and less than 70%) | 5 (Herbicidal rate 90% or more (almost complete death)) | 5 (Herbicidal rate 90% or more (almost complete death)) | 4 (Herbicidal rate 70% or more and less than 90%) | 5 (Herbicidal rate 90% or more (almost complete death)) | 5 (Herbicidal rate 90% or more (almost complete death)) | 5 (Herbicidal rate 90% or more (almost complete death)) | 5 (Herbicidal rate 90% or more (almost complete death)) | 5 (Herbicidal rate 90% or more (almost complete death)) | 5 (Herbicidal rate 90% or more (almost complete death)) | 3 (Herbicidal rate 40% or more and less than 70%) | 4 (Herbicidal rate 70% or more and less than 90%) | herbicidal effect, A: Echinochloa crus-galli (Echinochloa crus-galli [1]): 5 (Herbicidal rate 90% or more (almost complete death)); herbicidal effect, B: Scirpus juncoides (Scirpus juncoides [2]): 5 (Herbicidal rate 90% or more (almost complete death)); herbicidal effect, C: Monochoria vaginalis (Monochoria vaginalis [3]): 5 (Herbicidal rate 90% or more (almost complete death)); herbicidal effect, G: Black-grass (Black-grass [24]): 5 (Herbicidal rate 90% or more (almost complete death)); herbicidal effect, I: Ambrosia elatior (Ambrosia elatior [25]): 5 (Herbicidal rate 90% or more (almost complete death)); herbicidal effect, H: Abutilon avicennae (Abutilon avicennae [26]): 3 (Herbicidal rate 40% or more and less than 70%); herbicidal effect, e: Triticum aestivum (wheat) [27]: 4 (Herbicidal rate 70% or more and less than 90%); herbicidal effect, c: soybean (Glycine max) (soybean (Glycine max) [28]): 3 (Herbicidal rate 40% or more and less than 70%); herbicidal effect, b: corn (Zea mays) (corn (Zea mays) [29]): 4 (Herbicidal rate 70% or more and less than 90%); herbicidal effect, F: Avena fatua (Avena fatua [30]): 0 (Herbicidal rate 5% or less (little effect)); herbicidal effect, M: Stellaria media (Stellaria media [31]): 5 (Herbicidal rate 90% or more (almost complete death)); herbicidal effect, L: Polygonum blumei (Polygonum blumei [32]): 5 (Herbicidal rate 90% or more (almost complete death)); herbicidal effect, J: Amaranthus retroflexus (Amaranthus retroflexus [33]): 4 (Herbicidal rate 70% or more and less than 90%); herbicidal effect, D: Digitaria adscendes (Digitaria adscendes [34]): 4 (Herbicidal rate 70% or more and less than 90%); herbicidal effect, f: Beta vulgaris (beet) (Beta vulgaris (beet) [35]): 4 (Herbicidal rate 70% or more and less than 90%); herbicidal effect, K: Chenopodium album (Chenopodium album [36]): 5 (Herbicidal rate 90% or more (almost complete death)); herbicidal effect, d: direct sown rice (direct sown rice [37]): 4 (Herbicidal rate 70% or more and less than 90%); herbicidal effect, d: direct sown rice (direct sown rice [38]): 4 (Herbicidal rate 70% or more and less than 90%)
COc1cc(OC)nc(NC(=O)NS(=O)(=O)c2c(C3=NOCC(C)(CI)O3)c(Cl)nn2C)n1 (stereo not shown) [Compound 4, N-((4,6-dimethoxypyrimidin-2-yl)aminocarbonyl)-3-chloro-4-(5-iodomethyl-5-methyl-5H,6H-1,4,2-dioxadin-3-yl)-1-methylpyrazole-5-sulfonamide] | 0 (Herbicidal rate 5% or less (little effect)) | 0 (Herbicidal rate 5% or less (little effect)) | 0 (Herbicidal rate 5% or less (little effect)) | 3 (Herbicidal rate 40% or more and less than 70%) | 4 (Herbicidal rate 70% or more and less than 90%) | 0 (Herbicidal rate 5% or less (little effect)) | 3 (Herbicidal rate 40% or more and less than 70%) | 0 (Herbicidal rate 5% or less (little effect)) | 0 (Herbicidal rate 5% or less (little effect)) | 2 (Herbicidal rate 20% or more and less than 40%) | 3 (Herbicidal rate 40% or more and less than 70%) | 2 (Herbicidal rate 20% or more and less than 40%) | 0 (Herbicidal rate 5% or less (little effect)) | 1 (Herbicidal rate 5% or more and less than 20%) | 4 (Herbicidal rate 70% or more and less than 90%) | 0 (Herbicidal rate 5% or less (little effect)) | 3 (Herbicidal rate 40% or more and less than 70%) | 3 (Herbicidal rate 40% or more and less than 70%) | 0 (Herbicidal rate 5% or less (little effect)) | 0 (Herbicidal rate 5% or less (little effect)) | herbicidal effect, G: Black-grass (Black-grass [24]): 0 (Herbicidal rate 5% or less (little effect)); herbicidal effect, I: Ambrosia elatior (Ambrosia elatior [25]): 2 (Herbicidal rate 20% or more and less than 40%); herbicidal effect, H: Abutilon avicennae (Abutilon avicennae [26]): 0 (Herbicidal rate 5% or less (little effect)); herbicidal effect, e: Triticum aestivum (wheat) [27]: 0 (Herbicidal rate 5% or less (little effect)); herbicidal effect, c: soybean (Glycine max) (soybean (Glycine max) [28]): 0 (Herbicidal rate 5% or less (little effect)); herbicidal effect, b: corn (Zea mays) (corn (Zea mays) [29]): 0 (Herbicidal rate 5% or less (little effect)); herbicidal effect, F: Avena fatua (Avena fatua [30]): 0 (Herbicidal rate 5% or less (little effect)); herbicidal effect, M: Stellaria media (Stellaria media [31]): 1 (Herbicidal rate 5% or more and less than 20%); herbicidal effect, L: Polygonum blumei (Polygonum blumei [32]): 0 (Herbicidal rate 5% or less (little effect)); herbicidal effect, J: Amaranthus retroflexus (Amaranthus retroflexus [33]): 0 (Herbicidal rate 5% or less (little effect)); herbicidal effect, D: Digitaria adscendes (Digitaria adscendes [34]): 0 (Herbicidal rate 5% or less (little effect)); herbicidal effect, f: Beta vulgaris (beet) (Beta vulgaris (beet) [35]): 0 (Herbicidal rate 5% or less (little effect)); herbicidal effect, K: Chenopodium album (Chenopodium album [36]): 1 (Herbicidal rate 5% or more and less than 20%); herbicidal effect, d: direct sown rice (direct sown rice [37]): 0 (Herbicidal rate 5% or less (little effect)); herbicidal effect, d: direct sown rice (direct sown rice [38]): 0 (Herbicidal rate 5% or less (little effect))
